The subject of experiment [1] is Wistar rats. As to the kind of experiment: Glucose challenge test and body weight in rats on high fat/high cholesterol diet, water with DDA at 1% of caloric intake. The format is in vivo. The source says: Animal Studies. All in vivo studies used Wistar rats that were kept for 9 weeks on a high fat/high cholesterol diet. The animals were then separated into two groups, a control group that continued the high fat/high cholesterol diet with regular water, whereas the treatment group continued the high fat/high cholesterol diet with water containing DDA (dodecanedioic acid) in an amount of 1% of the caloric intake. After all animals were separated in the respective test groups, body weights were recorded, and a glucose challenge test administered. […] Such effect is particularly unexpected as the quantity of DDA in the food was well below any quantity that was reasonably expected.

Experiment [2] concerns SIRT1. Kind of experiment: SIRT1 levels in liver cells. Particulars: AML-12 liver cells, 6 hours; p=0.127. In kind it is cell-based. The source says:
(§1) To that end, the inventors used endothelial cells (EOMA cells) and liver cells (AML-12 cells) in vitro and quantified various markers in response to exposure of the cells to environmental challenge in the presence and absence of DDA at low concentrations. Unless indicated otherwise, the DDA concentration in the in vitro experiments was 5 mcg per microliter. More specifically, the inventors measured p-H2AX protein levels as a marker for DNA damage, PGC-1α protein levels as a marker for mitochondrial biogenesis, NAMPT enzyme levels as a marker for potential for NAD+ production, and total antioxidant capacity as a marker of cellular health. In addition, the inventors also measured global SIRT activity as a gauge of activity for all SIRT enzymes, and in particular SIRT1 enzyme levels as markers for autophagy and various beneficial processes associated with a caloric restricted diet, and SIRT3 levels as markers for mitochondrial function and longevity.
In still further experiments, the inventors also investigated whether or not DDDA could have stimulatory effects on selected SIRT proteins. More specifically, the inventors tested the effects of DDDA on SIRT3 and SIRT1, and exemplary results are shown in FIG. 9 and FIG. 10, respectively. […] N=5-6 plates per treatment. […] Beyond this trend, however, no other observations were evident. N=5-6 plates per treatment.

Experiment [3] concerns SIRT enzymes. Kind of experiment: Global SIRT activity in liver cells. The format is cell-based. The following applies: AML-12 liver cells.
Text: as §1
In still further experiments, the liver cells were also tested for global SIRT activity and exemplary results are shown in FIG. 6.

The test system of experiment [4] is PGC-1α. As to the kind of experiment: PGC-1α in endothelial cells. The format is cell-based. The following applies: EOMA endothelial cells.
Text: as §1
In yet a further series of experiments, the inventors also sought to confirm whether or not DDDA would have a modulatory effect in endothelial cells using the same markers and experimental conditions as noted above.
On the other hand, where endothelial cells were exposed to DDDA, there was a significant difference in NAMPT enzyme levels as is exemplarily depicted in FIG. 15.

Experiment [5] deals with NAMPT. Kind of experiment: NAMPT enzyme levels in liver cells. The format is cell-based. The following applies: AML-12 liver cells.
Text: as §1
To evaluate the effect of DDDA on energy metabolism, and particularly on NAD+ synthesis, the inventors also tested the effect of DDDA on NAMPT in liver cells.

The subject of experiment [6] is primary human hepatocytes. Kind of experiment: In vitro citrate uptake. In kind it is cell-based. The following applies: citrate 150 μM; for citrate uptake: vs untreated cells. The procedure: Isolation of human primary hepatocytes: Tissue obtained during percutaneous liver biopsy, was diced (<3 mm) and washed in HBSS to remove excess blood. Tissue was then transferred to a tube containing pre-warmed EGTA buffer (HBSS, 0.5 mM EGTA, 0.5% fatty acid free bovine serum albumin (BSA)) and agitated (100 rpm) in a water bath with shaking bed for 10 min, 37° C. After three washes, to remove the remaining blood and EGTA, the tissue was placed in pre-warmed digestion buffer (HBSS, 0.05% collagenase IV, 0.5% fatty acid free BSA, 10 mM CaC12) and agitated (100 rpm) in a water bath with shaking bed for 30 min, 37° C. The digested tissue was filtered through 100 μm cell strainer while the remaining tissue was again digested in fresh digestion buffer (20). Cell suspensions were pooled and centrifuged at 80 g for 5 min, 4° C. and the supernatant discarded. Cells were grown until confluent and used for citrate uptake analysis.
In vitro Citrate Uptake: Primary human hepatocytes were incubated with or without Dodecanedioic acid, sodium salt (0.1-0.25-0.5-1-1.5% w/vol) for 30 minutes. Following the incubation step, citrate was added at a final concentration of 150 μM for 40 minutes. At the end of the stimulation citrate uptake was assessed by a commercial Citrate Assay Kit and data analyzed with Varioskan LUX multimode microplate reader.

Experiment [7] deals with cancer bearing mice. Kind of experiment: Administration of DDDA to cancer bearing mice. Particulars: mouse, in vivo. The source says: Thus, DDDA in low doses (5 g or less, or 4 g or less, or 3 g, or less, or 2 g or less, or 1 g or less) may be used for chemoprevention of HCC in healthy liver or livers of NASH/NAFLD individuals, presumably due to reduction of chronic subacute inflammation.

The structures appear in SMILES notation.

On to `O=C(O)CCCCCCCCCCC(=O)O` [DDDA, dodecanedioic acid], for which the “AUC blood glucose in glucose challenge” value in experiment [1] was “significantly reduced”. For the same compound, the “blood glucose spike in glucose challenge” value in experiment [1] was “significantly blunted”. The SIRT1 levels result in experiment [2] was “trended upwards”. In addition, the “global SIRT activity” value in experiment [3] (6 hours, in the presence of hydrogen peroxide, p<0.001) was “increased global SIRT activity in a statistically significant manner”; in experiment [3] (24 hours, no hydrogen peroxide, same trend, p=0.065), “did not reach a level of significance”. In experiment [4], the PGC-1α entry was “did not show a statistically significant difference”. Further, the NAMPT enzyme levels entry was “significantly increased” in experiment [5] (6 hours, p=0.001) and “paradoxically reversed” in experiment [5] (24 hours, pattern relative to 6 hours). In addition, the citrate uptake entry in experiment [6] (C12 1% (v/w)) and in experiment [6] (C12 1.5% (v/w)) was “significant decrease” in each case. The “citrate uptake (figure legend)” value in experiment [6] (C12 0.1-1.5% v/w) is on record as “inhibits citrate uptake”. Further, in experiment [7], the “effect in cancer bearing mice” value was “helpful for liver blastomas and potentially NASH associated carcinomas”.
